Results on 8 molecules are retold here after PMC12693419, “Design, Synthesis, Biological Evaluation, and In Silico Studies of Novel Multitarget Cinnamic Acid Hybrids” (Molecules, 2025).

Series [1] in a line: In vitro inhibition of linoleic acid lipid peroxidation (AAPH). As to conditions: 100 μM; anti-lipid peroxidation. The source says: In the present study, the aim was to evaluate the anti-lipid peroxidation activities of the synthesized compounds 5a–i, 6a–i, 9a–i, and 11 and compare their efficacy to that of Trolox, a well-known antioxidant. Using the water-soluble compound 2,2′-azobis(2-amidinopropane) hydrochloride (AAPH), peroxyl radicals are generated through spontaneous thermal decomposition in vitro. This experimental setup imitated the lipid peroxidation processes occurring in cells due to radical activity allowing the investigation of the effectiveness of the tested compounds under conditions resembling cellular oxidative stress.
An in vitro assay was performed following previously established protocols. The compound 2,2′-Azobis(2-methylpropionamidine) dihydrochloride (AAPH) was used as a controlled source of thermally generated alkylperoxy free radicals. The formation of conjugated diene hydroperoxides through the oxidation of sodium linoleate in an aqueous dispersion at 37 °C was measured by monitoring absorbance at 234 nm. The results were compared with the reference compound, Trolox (93%) (Table 6).

In series [2] the target is T1, soybean lipoxygenase isoenzyme-1 (SLOX-1) (Glycine max, UniProt P08170).
T1 construct: purchased Merck and Sigma-Aldrich
T1 sequence (P08170 1-839): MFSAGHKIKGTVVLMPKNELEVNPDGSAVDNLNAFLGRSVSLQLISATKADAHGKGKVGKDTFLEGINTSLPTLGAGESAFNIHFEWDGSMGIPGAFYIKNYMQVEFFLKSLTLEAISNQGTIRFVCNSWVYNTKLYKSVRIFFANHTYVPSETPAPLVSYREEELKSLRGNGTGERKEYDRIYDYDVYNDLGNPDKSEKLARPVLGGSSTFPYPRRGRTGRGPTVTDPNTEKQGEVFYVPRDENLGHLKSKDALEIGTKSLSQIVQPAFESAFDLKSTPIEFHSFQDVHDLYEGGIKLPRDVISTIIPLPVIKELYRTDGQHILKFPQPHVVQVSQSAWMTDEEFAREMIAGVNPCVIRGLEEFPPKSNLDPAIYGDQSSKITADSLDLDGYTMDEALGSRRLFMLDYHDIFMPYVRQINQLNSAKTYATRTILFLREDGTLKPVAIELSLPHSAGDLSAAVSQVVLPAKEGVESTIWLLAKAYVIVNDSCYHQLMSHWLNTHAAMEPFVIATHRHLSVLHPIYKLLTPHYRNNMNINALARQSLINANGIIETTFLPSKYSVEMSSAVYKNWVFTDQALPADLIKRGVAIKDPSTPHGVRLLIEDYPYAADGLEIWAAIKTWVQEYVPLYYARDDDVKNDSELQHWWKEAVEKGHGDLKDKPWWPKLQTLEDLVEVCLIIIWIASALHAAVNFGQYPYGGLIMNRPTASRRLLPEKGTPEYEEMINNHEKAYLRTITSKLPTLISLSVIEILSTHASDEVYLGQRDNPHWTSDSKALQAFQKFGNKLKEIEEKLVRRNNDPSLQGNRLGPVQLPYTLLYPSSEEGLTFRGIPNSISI
Description: In vitro inhibition of soybean lipoxygenase. Type of series: biochemical. Conditions: for IC50: pH 9.0, read-out: LOX Inh. IC50; for LOX Inh. IC50: pH 9.0. As to the method: In vitro anti-LOX activities were evaluated using soybean lipoxygenase isoenzyme-1 (SLOX-1), a commonly used model for mammalian LOXs.
An in vitro study was conducted following a previously reported method. The tested compounds were dissolved in DMSO (100 µM) and incubated at room temperature with 0.1 mL of sodium linoleate as the substrate and 0.2 mL of soybean lipoxygenase solution in Tris-HCl buffer (pH 9.0).

Series [3] in a line: In vitro determination of NO release with Griess reagent. As to conditions: 100 μM, L-cysteine, pH 7.4, 37 °C, 60 min. An excerpt:
This assay evaluates the ability of nitrate esters to release nitric oxide (NO). First, sodium nitroprusside (SNP) reacts with the thiol compound, cysteine, which serves as a reducing agent (Scheme 5). The thiol donates electrons, facilitating the breakdown of the nitroprusside complex. Afterwards, the reaction leads to the formation of intermediate complexes, such as nitrosothiol species and the decomposition of these intermediates results in the release of nitric oxide (NO). According to the literature, measurements are conducted both in the presence and absence of the thiol agent, cysteine. No significant difference was observed between the two experimental conditions, and the results were reproducible. Sodium nitroprusside (SNP) was used as the reference compound [65].
The compounds (from a 10 mM stock solution in DMSO, final concentration 100 μM) are added (20 μL) to each test tube. Then, 2 mL of phosphate buffer solution (pH 7.4) is added. L-cysteine, used as the thiol agent, is added to the mixture at a final concentration of 0.5 mM. The solution is incubated at 37 °C for 60 min, after which 1 mL is removed and mixed with 250 μL of Griess reagent (4 g sulfanilamide, 0.2 g N-(1-naphthyl)-ethylenediamine dihydrochloride, and 10 mL of H3PO4 solution, final volume adjusted to 100 mL). The mixture is allowed to stand for 10 min at room temperature, and the absorbance of the produced compound is measured at 540 nm. Sodium nitroprusside (SNP) is used as the reference compound. The results are presented as the release of NO2^− (% NO2^− (mol/mol)) induced by the compounds in the presence of L-cysteine (Table 6).

The next series addresses T2, bovine serum albumin (Bos taurus, UniProt P02769).
T2 construct: bovine serum albumin solution (fraction V); purchased Merck and Sigma-Aldrich; host or cells: bovine serum (fraction V)
Description: In vitro inhibition of albumin denaturation. As to conditions: heat denaturation, 60 °C 10 min. As for the experimental part: The ability of a compound to inhibit the thermal denaturation of albumin is considered an indicator of anti-inflammatory activity. Heat exposure simulates conditions of cellular stress or inflammation, during which protein and tissue damage occur. Certain substances can protect proteins from denaturation upon heating by stabilizing their structure and preventing aggregation and precipitation.
Inhibition of albumin denaturation was measured following the reported method. In a test tube, 1 mL of bovine serum albumin solution (fraction V, 1% w/v in phosphate buffer, pH 7.4) and 100 μL of the test compound solution were added sequentially. The mixture was incubated at 37 °C for 15 min, followed by heating at 60 °C for 10 min. After cooling to room temperature, the absorbance was measured at 660 nm. DMSO was used as the blank, and the results were compared to acetylsalicylic acid, which served as the reference compound (Table 6).

In the next series the target is T3, ovine COX-2 (Ovis aries, UniProt P79208).
T3 sequence (P79208 17-603): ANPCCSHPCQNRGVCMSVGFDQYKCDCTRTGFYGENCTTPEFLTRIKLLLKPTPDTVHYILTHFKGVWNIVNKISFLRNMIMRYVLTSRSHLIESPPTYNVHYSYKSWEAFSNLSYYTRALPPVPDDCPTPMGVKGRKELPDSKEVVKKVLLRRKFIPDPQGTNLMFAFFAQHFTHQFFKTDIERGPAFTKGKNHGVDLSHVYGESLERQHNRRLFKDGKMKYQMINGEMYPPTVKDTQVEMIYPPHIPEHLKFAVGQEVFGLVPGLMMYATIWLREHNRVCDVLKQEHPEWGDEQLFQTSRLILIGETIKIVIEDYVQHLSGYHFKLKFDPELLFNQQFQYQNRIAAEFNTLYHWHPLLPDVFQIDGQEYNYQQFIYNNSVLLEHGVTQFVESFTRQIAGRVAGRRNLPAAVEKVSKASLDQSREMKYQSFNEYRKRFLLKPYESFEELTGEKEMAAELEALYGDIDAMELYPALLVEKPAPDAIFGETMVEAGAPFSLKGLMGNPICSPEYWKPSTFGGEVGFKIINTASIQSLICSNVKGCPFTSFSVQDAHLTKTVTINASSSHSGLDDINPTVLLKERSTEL
As to the kind of experiment: In vitro inhibition of ovine cyclooxygenase-2.

T2 sequence (P02769 25-607): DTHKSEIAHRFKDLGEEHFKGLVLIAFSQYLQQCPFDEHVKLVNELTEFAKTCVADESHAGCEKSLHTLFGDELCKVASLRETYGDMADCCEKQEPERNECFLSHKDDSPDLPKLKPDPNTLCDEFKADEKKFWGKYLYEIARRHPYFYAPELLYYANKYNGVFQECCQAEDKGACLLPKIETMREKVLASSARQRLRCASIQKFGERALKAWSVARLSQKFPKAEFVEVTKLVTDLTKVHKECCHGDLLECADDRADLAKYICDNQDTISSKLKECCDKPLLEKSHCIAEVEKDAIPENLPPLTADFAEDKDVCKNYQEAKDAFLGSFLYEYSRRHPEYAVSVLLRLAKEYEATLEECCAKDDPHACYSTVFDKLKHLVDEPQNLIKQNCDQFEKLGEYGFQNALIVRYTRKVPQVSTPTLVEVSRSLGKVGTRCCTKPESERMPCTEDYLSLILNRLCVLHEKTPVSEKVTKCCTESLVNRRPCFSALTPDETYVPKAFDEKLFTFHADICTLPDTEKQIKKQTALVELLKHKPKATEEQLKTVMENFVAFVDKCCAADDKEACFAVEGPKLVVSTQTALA
Description for ovine COX-2: In order to prevent this in the in vitro experiment used for testing COX inhibition activity of the new molecules, a co-substrate like N,N,N′,N′-tetramethyl-p-phenylenediamine (TMPD) is included, as it undergoes co-oxidation by PGG2. The oxidized TMPD has a maximum absorbance at 590 nm. […] To ensure maximum enzyme activity, heme is added to the reaction mixture during the in vitro assay for ovine COX-2 inhibition and COX-1 inhibition [63].
The in vitro COX-2 inhibitory activity was assessed using arachidonic acid (AA) as a substrate and N,N,N′,N′-tetramethyl-p-phenylenediamine (TMPD) as a co-substrate in a Tris-HCl buffer (pH 8.5), following the reported method [89]. To the test tube, 10 µL of the compound dissolved in DMSO was added to a mixture containing 730 µL of Tris-HCl buffer (pH 8.5), 50 µL of heme, 10 µL of COX-2 enzyme, and 100 µL of TMPD. The absorbance was measured at 590 nm. […] A blank determination was conducted as a negative control.

As a reminder, the IC50 is the point on the concentration scale where inhibition reaches its midpoint. On to `C/C(=N\O)c1ccc(NC(=O)COC(=O)/C=C/c2cc3ccccc3o2)cc1` [Compound 6f, 2-((4-((E)-1-(Hydroxyimino)ethyl)phenyl)amino)-2-oxoethyl (E)-3-(benzofuran-2-yl)acrylate], for which, in series [1], the “AAPH Inh. at 100 μΜ” value was “no”. The 50% inhibitory concentration (IC50) in series [2] worked out at 61 µM. The “%NO2^− Release mol/mol at 100 μΜ” value in series [3] is on record as 0.3%. In addition, on bovine serum albumin, the “Albumin (inhibition of albumin denaturation)” value is “no”. Also, on ovine COX-2, the “COX-2 Inh. IC50” value is listed as “no”.

For the molecule `C/C(=N\O)c1ccc(NC(=O)COC(=O)/C=C/c2cccc3ccccc23)cc1` [Compound 6b, 2-((4-((E)-1-(Hydroxyimino)ethyl)phenyl)amino)-2-oxoethyl (E)-3-(naphthalen-1-yl)acrylate], in series [1], the “AAPH Inh. at 100 μΜ” value amounted to 94%. Further, in series [2], the IC50 was 60 µM. Besides, the “%NO2^− Release mol/mol at 100 μΜ” value in series [3] is listed as 1.1%. Also, on bovine serum albumin, the “Albumin (inhibition of albumin denaturation)” value is listed as “no”. For the same molecule, at ovine COX-2, the “COX-2 Inh. IC50” value is “no”.

In the case of `C/C(=N\O)c1ccc(NC(=O)COC(=O)/C=C/c2ccco2)cc1` [Compound 6d, 2-((4-((E)-1-(Hydroxyimino)ethyl)phenyl)amino)-2-oxoethyl (E)-3-(furan-2-yl)acrylate], the “AAPH Inh. at 100 μΜ” value in series [1] was found to be 54%. In addition, the “LOX Inh. IC50” value in series [2] is “no”. The “%NO2^− Release mol/mol at 100 μΜ” value in series [3] is given as 0.2%. Further, the “Albumin (inhibition of albumin denaturation)” value at bovine serum albumin stood at 10%. Besides, the “COX-2 Inh. IC50” value at ovine COX-2 was “no”.

For `O=C(C=Cc1ccccc1)OCCOc1no[n+]([O-])c1S(=O)(=O)c1ccccc1` [Compound 11, 4-(2-(Cinnamoyloxy)ethoxy)-3-(phenylsulfonyl)-1,2,5-oxadiazole 2-oxide], in series [1], the “AAPH Inh. at 100 μΜ” value is listed as 90%. The “LOX Inh. IC50” value in series [2] was “complete loss of activity and no”. Moreover, the “%NO2^− Release mol/mol at 100 μΜ” value in series [3] worked out at 11%. The “Albumin (inhibition of albumin denaturation)” value at bovine serum albumin is “no”. Also, the “COX-2 Inh. IC50” value on ovine COX-2 is given as “no”.

In the case of `O=C(C=Cc1cccc2ccccc12)OCc1c(-c2ccccc2)no[n+]1[O-]` [Compound 9b, 3-(((3-(Naphthalen-1-yl)acryloyl)oxy)methyl)-4-phenyl-1,2,5-oxadiazole 2-oxide], the “AAPH Inh. at 100 μΜ” value in series [1] came out at 84%. In addition, the “LOX Inh. IC50” value in series [2] is reported as “no”. In addition, the “%NO2^− Release mol/mol at 100 μΜ” value in series [3] was 1.2%. The “Albumin (inhibition of albumin denaturation)” value on bovine serum albumin is “no”. Besides, the “COX-2 Inh. IC50” value on ovine COX-2 is given as “no”.

`O=C(/C=C/c1cccs1)OCc1c(-c2ccccc2)no[n+]1[O-]` [Compound 9c, (E)-4-Phenyl-3-(((3-(thiophen-2-yl)acryloyl)oxy)methyl)-1,2,5-oxadiazole 2-oxide]: in series [1], the “AAPH Inh. at 100 μΜ” value was 73.3%. Also, the “LOX Inh. IC50” value in series [2] is “no”. For the same molecule, in series [3], the “%NO2^− Release mol/mol at 100 μΜ” value is reported as 1.2%. Besides, the “Albumin (inhibition of albumin denaturation)” value at bovine serum albumin was “no”. Moreover, at ovine COX-2, the “COX-2 Inh. IC50” value was “no”.

For `O=C(/C=C/c1ccco1)OCc1c(-c2ccccc2)no[n+]1[O-]` [Compound 9d, (E)-3-(((3-(Furan-2-yl)acryloyl)oxy)methyl)-4-phenyl-1,2,5-oxadiazole 2-oxide], in series [1], the “AAPH Inh. at 100 μΜ” value worked out at 78%. In series [2], the IC50 was 63 µM. In addition, the “%NO2^− Release mol/mol at 100 μΜ” value in series [3] is given as “no”. The “Albumin (inhibition of albumin denaturation)” value at bovine serum albumin is “no”. In addition, the “COX-2 Inh. IC50” value on ovine COX-2 is given as “no”.

On to `O=C(C=Cc1ccccc1)OCc1c(-c2ccccc2)no[n+]1[O-]` [Compound 9a, 3-((Cinnamoyloxy)methyl)-4-phenyl-1,2,5-oxadiazole 2-oxide], for which, in series [1], the “AAPH Inh. at 100 μΜ” value was determined as 91.6%. Also, the IC50 in series [2] came out at 3.5 µM. In series [3], the “%NO2^− Release mol/mol at 100 μΜ” value came out at 20%. On bovine serum albumin, the “Albumin (inhibition of albumin denaturation)” value is on record as “no”. Also, the “COX-2 Inh. IC50” value at ovine COX-2 was “no”.
